Literature values, collected in patent EP1072609A2, “Cytoprotective agents comprising prosaposin-related peptides” (Sakanaka, Masahiro, priority 1999, dated 2001).
Ends that are not written are not given here.

Tests used:
[1] = test system: neurons in the ischemic penumbra of the cerebral cortex; details: intracerebroventricular infusion
[2] = intravenous administration

CC(C)=CCC[C@](C)(O[C@@H]1O[C@H](CO[C@@H]2O[C@H](CO)[C@@H](O)[C@H](O)[C@H]2O)[C@@H](O)[C@H](O)[C@H]1O)[C@H]1CC[C@]2(C)[C@@H]1[C@H](O)C[C@@H]1[C@@]3(C)CC[C@H](O[C@@H]4O[C@H](CO)[C@@H](O)[C@H](O)[C@H]4O[C@@H]4O[C@H](CO)[C@@H](O)[C@H](O)[C@H]4O)C(C)(C)[C@@H]3CC[C@]12C [ginsenoside Rb1]
cortical infarction [1]: ameliorate | place navigation disability [1]: ameliorate | expression of Bcl-xL (Bcl-xL): stimulates

LSELIINNATEELLIKGL [18-MP]
share of intravenously administered peptide transferred into the brain [2]: approximately 0.03%
